Source: ChEMBL document CHEMBL4130371, “Norepinephrine alkaloids as antiplasmodial agents: Synthesis of syncarpamide and insight into the structure-activity relationships of its analogues as antiplasmodial agents” (Eur J Med Chem, 2017)

System: not listed separately
Experiment: Cytotoxicity against African green monkey Vero cells assessed as reduction in cell viability after 72 hrs by MTT assay
Type: cell-based
Details: chlorocebus sabaeus

Q: For `COc1ccc([C@@H](CNC(=O)CCc2ccccc2)OC(=O)/C=C/c2ccccc2)cc1OC`, which CC50 at 72 h is on record?
A: The CC50 at 72 h was 44.3 µM.

Q: With `CCCC(=O)O[C@H](CNC(=O)/C=C/c1ccccc1)c1ccc(OC)c(OC)c1` as the compound, how does the CC50 at 72 h read?
A: Its CC50 at 72 h is 29.9 µM.

Q: Which CC50 at 72 h does the source give for `COc1cc([C@@H]2c3cc4c(cc3[C@H](O)[C@H]3COC(=O)[C@H]23)OCO4)cc(OC)c1OC` [PODOFILOX] here?
A: Its CC50 at 72 h is 5.74 µM.

Q: With `COc1ccc([C@@H](CNC(=O)/C=C/c2ccccc2)OC(=O)CCc2ccccc2)cc1OC` as the compound, how does the CC50 at 72 h read?
A: The CC50 at 72 h was 36.9 µM.

Q: Which CC50 at 72 h does the source give for `O=C(/C=C/c1ccccc1)OC[C@H](OC(=O)/C=C/c1ccccc1)c1ccc2ccccc2c1` here?
A: The CC50 at 72 h was 181 µM.

Q: With `O=C(/C=C/c1ccccc1)OC[C@@H](OC(=O)/C=C/c1ccccc1)c1ccc2ccccc2c1` as the compound, how does the CC50 at 72 h read?
A: The CC50 at 72 h was greater than 200 µM.

Q: For `CCCC(=O)NC[C@@H](OC(=O)/C=C/c1ccccc1)c1ccc(OC)c(OC)c1`, which CC50 at 72 h is on record?
A: Its CC50 at 72 h is 42.4 µM.

System: Plasmodium falciparum
Experiment: Antiplasmodial activity against chloroquine-resistant Plasmodium falciparum K1 measured after 72 hrs by SYBR green 1 dye based fluorescence assay
Type: functional, organism-based
Details: K1, 72 h

Q: For `COc1ccc([C@@H](CNC(=O)CCc2ccccc2)OC(=O)/C=C/c2ccccc2)cc1OC`, which IC50 is on record?
A: Its IC50 is greater than 10 µM.

Q: Which IC50 does the source give for `CCCC(=O)O[C@H](CNC(=O)/C=C/c1ccccc1)c1ccc(OC)c(OC)c1` here?
A: The IC50 was greater than 10 µM.

Q: Which IC50 does the source give for `COc1ccc([C@H](O)CNC(=O)/C=C/c2ccccc2)cc1` here?
A: The IC50 was 7.26 µM.

Q: With `COc1ccc([C@@H](CNC(=O)/C=C/c2ccccc2)OC(=O)CCc2ccccc2)cc1OC` as the compound, how does the IC50 read?
A: Its IC50 is greater than 10 µM.

Q: For `COc1ccc([C@@H](O)CNC(=O)/C=C/c2ccccc2)cc1` [AEGELINE], which IC50 is on record?
A: Its IC50 is greater than 10 µM.

Q: For `O=C(/C=C/c1ccccc1)OC[C@H](OC(=O)/C=C/c1ccccc1)c1ccc2ccccc2c1`, which IC50 is on record?
A: The IC50 was 2.15 µM.

Q: With `O=C(/C=C/c1ccccc1)OC[C@@H](OC(=O)/C=C/c1ccccc1)c1ccc2ccccc2c1` as the compound, how does the IC50 read?
A: The IC50 was greater than 10 µM.

Q: For `CCCC(=O)NC[C@@H](OC(=O)/C=C/c1ccccc1)c1ccc(OC)c(OC)c1`, which IC50 is on record?
A: The IC50 was greater than 10 µM.

System: not listed separately
Experiment: Selectivity index, ratio of CC50 for African green monkey Vero cells to IC50 for chloroquine-sensitive Plasmodium falciparum 3D7
Type: toxicity
Details: read-out: Ratio CC50/IC50

Q: Which selectivity ratio does the source give for `COc1ccc([C@@H](CNC(=O)CCc2ccccc2)OC(=O)/C=C/c2ccccc2)cc1OC` here?
A: Its selectivity ratio is less than 4.43.

Q: For `CCCC(=O)O[C@H](CNC(=O)/C=C/c1ccccc1)c1ccc(OC)c(OC)c1`, which selectivity ratio is on record?
A: Its selectivity ratio is less than 2.98.

Q: With `COc1ccc([C@@H](CNC(=O)/C=C/c2ccccc2)OC(=O)CCc2ccccc2)cc1OC` as the compound, how does the selectivity ratio read?
A: Its selectivity ratio is less than 3.69.

Q: Which selectivity ratio does the source give for `O=C(/C=C/c1ccccc1)OC[C@H](OC(=O)/C=C/c1ccccc1)c1ccc2ccccc2c1` here?
A: Its selectivity ratio is less than 18.1.

Q: With `O=C(/C=C/c1ccccc1)OC[C@@H](OC(=O)/C=C/c1ccccc1)c1ccc2ccccc2c1` as the compound, how does the selectivity ratio read?
A: Its selectivity ratio is 20.

Q: Which selectivity ratio does the source give for `CCCC(=O)NC[C@@H](OC(=O)/C=C/c1ccccc1)c1ccc(OC)c(OC)c1` here?
A: Its selectivity ratio is less than 4.24.

System: Plasmodium falciparum
Experiment: Antiplasmodial activity against chloroquine-sensitive Plasmodium falciparum 3D7 measured after 72 hrs by SYBR green 1 dye based fluorescence assay
Type: functional, organism-based
Details: 3D7, 72 h

Q: Which IC50 does the source give for `COc1ccc([C@@H](CNC(=O)CCc2ccccc2)OC(=O)/C=C/c2ccccc2)cc1OC` here?
A: The IC50 was greater than 10 µM.

Q: For `CCCC(=O)O[C@H](CNC(=O)/C=C/c1ccccc1)c1ccc(OC)c(OC)c1`, which IC50 is on record?
A: Its IC50 is greater than 10 µM.

Q: With `COc1ccc([C@H](O)CNC(=O)/C=C/c2ccccc2)cc1` as the compound, how does the IC50 read?
A: Its IC50 is 6.82 µM.

Q: Which IC50 does the source give for `COc1ccc([C@@H](CNC(=O)/C=C/c2ccccc2)OC(=O)CCc2ccccc2)cc1OC` here?
A: Its IC50 is greater than 10 µM.

Q: For `COc1ccc([C@@H](O)CNC(=O)/C=C/c2ccccc2)cc1` [AEGELINE], which IC50 is on record?
A: The IC50 was greater than 10 µM.

Q: Which IC50 does the source give for `O=C(/C=C/c1ccccc1)OC[C@H](OC(=O)/C=C/c1ccccc1)c1ccc2ccccc2c1` here?
A: Its IC50 is greater than 10 µM.

Q: For `O=C(/C=C/c1ccccc1)OC[C@@H](OC(=O)/C=C/c1ccccc1)c1ccc2ccccc2c1`, which IC50 is on record?
A: The IC50 was greater than 10 µM.

Q: With `CCCC(=O)NC[C@@H](OC(=O)/C=C/c1ccccc1)c1ccc(OC)c(OC)c1` as the compound, how does the IC50 read?
A: The IC50 was greater than 10 µM.
